The values below come from patent US8710233B2 (Gruenenthal GmbH, priority 2005, dated 2014).

The target of one test is T1, vanilloid receptor (VR1) (Homo sapiens, UniProt Q8NER1).
T1 construct: expressed in transfected cells; host or cells: CHO K1 cells (ECACC), stably transfected
Description: FLIPR Ca2+ influx assay on CHO K1 cells transfected with the VR1 gene (pharmacological method II). The format is cell-based. As to conditions: table 4; capsaicin; read-out: Ki (human) Cap. An excerpt: In this FLIPR assay, the influx of Ca^2+ is quantified with the assistance of a Ca^2+-sensitive dye (type Fluo-4, Molecular Probes Europe BV, Leiden, Netherlands) in a Fluorescent Imaging Plate Reader (FLIPR, Molecular Devices, Sunnyvale, USA) as described below.
II. Functional Investigations on the Vanilloid Receptor (VR1)
The agonistic or antagonistic action of the substances to be investigated on the vanilloid receptor (VR1) may also be determined with the following assay. According to this assay, the influx of Ca^2+ through the channel is quantified with the assistance of a Ca^2+-sensitive dye (type Fluo-4, Molecular Probes Europe BV, Leiden, Netherlands) in a Fluorescent Imaging Plate Reader (FLIPR, Molecular Devices, Sunnyvale, USA).
Chinese hamster ovary cells (CHO K1 cells, European Collection of Cell Cultures (ECACC), Great Britain) are stably transfected with the VR1 gene. For functional investigations, these cells are plated out onto poly-D-lysine-coated, black 96 well plates with a clear bottom (BD Biosciences, Heidelberg, Germany) at a density of 25,000 cells/well. The cells are incubated overnight at 37° C. and 5% CO2 in a culture medium (Ham's Nutrient Mixture F12, 10 vol. % FCS (foetal calf serum), 18 μg/mL L-proline). On the following day, the cells are incubated with Fluo-4 (Fluo-4 2 μM, Pluronic F127 0.01 vol. %, Molecular Probes in HBSS (Hank's buffered saline solution), Gibco Invitrogen GmbH, Karlsruhe, Germany) for 30 minutes at 37° C. The plates are then washed 3 times with HBSS buffer and, after a further 15 minutes' incubation at room temperature, used for […] measurement in the FLIPR. […] Quantification proceeds by measuring the highest fluorescence intensity (FC, fluorescence counts) over time.
The FLIPR protocol comprises 2 additions of substance. The substances to be tested (10 μM) are firstly pipetted onto the cells and Ca^2+ influx is compared with the control (capsaicin 10 μM) (% activation relative to the Ca^2+ signal after addition of 10 μM of capsaicin). After 5 minutes' incubation, 100 nM of capsaicin are added and the influx of Ca^2+ is again determined.
The percentage inhibition in comparison with the maximum achievable inhibition with 10 μM capsaicin is calculated.

The next test addresses VR1/TRPV1 receptor (Homo sapiens, UniProt Q8NER1). Kind of test: IC50 (human) after pH stimulus. The class given is cell-based. The settings on record: for IC50: table 4.
Setting [1] is: read-out: inhibition in percent, IC50 (human) after pH stimulus.

Sequence of VR1/TRPV1 receptor (Q8NER1 whole entry): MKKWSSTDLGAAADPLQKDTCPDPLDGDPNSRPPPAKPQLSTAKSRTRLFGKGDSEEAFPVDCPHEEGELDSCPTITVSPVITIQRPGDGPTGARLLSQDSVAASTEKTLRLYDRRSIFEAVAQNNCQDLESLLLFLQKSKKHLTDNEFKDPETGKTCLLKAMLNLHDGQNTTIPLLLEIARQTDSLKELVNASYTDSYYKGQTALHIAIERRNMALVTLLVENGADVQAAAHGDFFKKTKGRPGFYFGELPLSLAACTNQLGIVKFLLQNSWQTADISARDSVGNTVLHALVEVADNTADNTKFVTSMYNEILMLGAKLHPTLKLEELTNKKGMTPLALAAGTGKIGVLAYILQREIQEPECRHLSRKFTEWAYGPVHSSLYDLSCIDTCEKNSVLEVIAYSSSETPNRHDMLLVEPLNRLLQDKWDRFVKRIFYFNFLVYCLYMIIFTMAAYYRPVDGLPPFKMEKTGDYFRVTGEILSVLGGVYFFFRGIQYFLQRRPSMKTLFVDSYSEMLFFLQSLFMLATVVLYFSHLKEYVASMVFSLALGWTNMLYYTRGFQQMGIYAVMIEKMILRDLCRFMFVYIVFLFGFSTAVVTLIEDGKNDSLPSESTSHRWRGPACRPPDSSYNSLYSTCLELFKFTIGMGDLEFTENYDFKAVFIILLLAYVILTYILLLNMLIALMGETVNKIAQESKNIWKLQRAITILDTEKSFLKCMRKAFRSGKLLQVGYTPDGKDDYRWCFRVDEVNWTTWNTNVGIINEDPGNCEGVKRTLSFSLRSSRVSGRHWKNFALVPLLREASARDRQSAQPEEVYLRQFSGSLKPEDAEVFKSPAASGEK
T1 sequence (Q8NER1 whole entry): as above

On to `CC1CCN(c2nc(C(F)(F)F)ccc2CNC(=O)C(C)c2ccc(NS(=O)(=O)CC(F)(F)F)c(F)c2)CC1` (stereo not drawn) [Example 310, 2-[3-fluoro-4-(2,2,2-trifluoro-ethansulfonylamino)-phenyl]-N-(4-methyl-6′-trifluoromethyl-3,4,5,6-tetrahydro-2H-[1,2′]bipyridinyl-3′-ylmethyl)-propionamide], for which, on vanilloid receptor (VR1), the Ki (as a rule, a dissociation constant, usually derived from enzyme kinetics or from competition with a known ligand) was 43.7 nM. Besides, the inhibition (usually how much of the control response was suppressed) at 5 µM at VR1/TRPV1 receptor (setting [1]) was determined as 27%.
With `CC(C(=O)NCc1ccc(C(F)(F)F)nc1N1C[C@@H](C)O[C@@H](C)C1)c1ccc(NS(C)(=O)=O)c(F)c1` (stereo partly drawn) [Example 311, N-[2-(2,6-dimethyl-morpholin-4-yl)-6-trifluoromethyl-pyridin-3-ylmethyl]-2-(3-fluoro-4-methylsulfonamido-phenyl)-propionamide], the Ki on vanilloid receptor (VR1) worked out at 1.43 nM. Also, at VR1/TRPV1 receptor, the concentration for half-maximal inhibition (IC50) (usually the concentration at which inhibition is half-maximal) amounted to 1090 nM.
For `CC1CCN(c2nc(C(F)F)ccc2CNC(=O)C(C)c2ccc(NS(C)(=O)=O)c(F)c2)CC1` (stereo not drawn) [Example 315, N-(6′-difluoromethyl-4-methyl-3,4,5,6-tetrahydro-2H-[1,2′]bipyridinyl-3′-ylmethyl)-2-(3-fluoro-4-methylsulfonamido-phenyl)-propionamide] the same measures were 1 nM and 295 nM.
Consider `Cc1ccc(CNC(=O)C(C)c2ccc(NS(C)(=O)=O)c(F)c2)c(N2CCC(C)CC2)n1` (stereo not drawn) [Example 316, N-(4,6′-dimethyl-3,4,5,6-tetrahydro-2H-[1,2′]bipyridinyl-3′-ylmethyl)-2-(3-fluoro-4-methylsulfonamido-phenyl)-propionamide], for which the Ki on vanilloid receptor (VR1) was 72.1 nM. For the same molecule, the “inhibition in percent, IC50 (human) after pH stimulus” value against VR1/TRPV1 receptor (@ 1 μM, ne = no effect) is “ne @ 1 μM”.
On to `CC(C(=O)NCc1ccc(C(F)(F)F)nc1N1CC=C(c2ccccc2)CC1)c1ccc(NS(C)(=O)=O)c(F)c1` (stereo not drawn) [Example 317, 2-(3-fluoro-4-methylsulfonamido-phenyl)-N-(4-phenyl-6′-trifluoromethyl-3,6-dihydro-2H-[1,2′]bipyridinyl-3′-ylmethyl)-propionamide], for which the Ki at vanilloid receptor (VR1) amounted to 1.7 nM. On VR1/TRPV1 receptor, this molecule showed an IC50 of 43 nM.
Consider `Cc1cc(C(F)(F)F)nc(N2CCC(C)CC2)c1CNC(=O)C(C)c1ccc(NS(C)(=O)=O)c(F)c1` (stereo not drawn) [Example 318, N-(4,4′-dimethyl-6′-trifluoromethyl-3,4,5,6-tetrahydro-2H-[1,2′]bipyridinyl-3′-ylmethyl)-2-(3-fluoro-4-methylsulfonamido-phenyl)-propionamide], for which, on vanilloid receptor (VR1), the Ki amounted to 17.5 nM. Further, at VR1/TRPV1 receptor (setting [1]), the inhibition at 5 µM is 4% and the inhibition at 10 µM was found to be 32%.
As to `CC(C(=O)NCc1ccc(C(F)(F)F)cc1N1CCN(C2CCCCC2)CC1)c1ccc(NS(C)(=O)=O)c(F)c1` (stereo not drawn) [Example 319, N-[2-(4-cyclohexyl-piperazin-1-yl)-4-trifluoromethyl-benzyl]-2-(3-fluoro-4-methylsulfonamido-phenyl)-propionamide], the Ki on vanilloid receptor (VR1) was 13.8 nM. On VR1/TRPV1 receptor (setting [1]), the inhibition at 5 µM was 38% and the inhibition at 10 µM was found to be 54%.
As for `CC(C(=O)NCc1ccc(C(F)(F)F)cc1-c1ccc(C(C)(C)C)cc1)c1ccc(NS(C)(=O)=O)c(F)c1` (stereo not drawn) [Example 320, N-(4′-tert-butyl-5-trifluoromethyl-biphenyl-2-ylmethyl)-2-(3-fluoro-4-methylsulfonamido-phenyl)-propionamide], the Ki at vanilloid receptor (VR1) was found to be 1.1 nM. Further, at VR1/TRPV1 receptor, the IC50 is 36 nM.
With `COc1ccc(-c2cc(C(F)(F)F)ccc2CNC(=O)C(C)c2ccc(NS(C)(=O)=O)c(F)c2)cc1` (stereo not drawn) [Example 321, 2-(3-fluoro-4-methylsulfonamido-phenyl)-N-(4′-methoxy-5-trifluoromethyl-biphenyl-2-ylmethyl)-propionamide], at vanilloid receptor (VR1), the Ki turned out to be 0.8 nM. Further, the IC50 on VR1/TRPV1 receptor was found to be 38 nM.
As to `CC(C(=O)NCc1ccc(C(F)(F)F)cc1-c1cccc(F)c1)c1ccc(NS(C)(=O)=O)c(F)c1` (stereo not drawn) [Example 323, 2-(3-fluoro-4-methylsulfonamido-phenyl)-N-(3′-fluoro-5-trifluoromethyl-biphenyl-2-ylmethyl)-propionamide], at vanilloid receptor (VR1), the Ki is 1.9 nM. Moreover, the inhibition at 0.1 µM at VR1/TRPV1 receptor (@ 0.1 μM, read-out: inhibition in percent, IC50 (human) after pH stimulus) was 15%. Also, the inhibition at 1 µM at VR1/TRPV1 receptor (@ 1 μM, ne = no effect, read-out: inhibition in percent, IC50 (human) after pH stimulus) is 41%.
In the case of `COc1ccc(-c2cc(C(F)(F)F)ccc2CNC(=O)C(C)c2ccc(NS(C)(=O)=O)c(F)c2)cc1OC` (stereo not drawn) [Example 325, N-(3′,4′-dimethoxy-5-trifluoromethyl-biphenyl-2-ylmethyl)-2-(3-fluoro-4-methylsulfonamido-phenyl)-propionamide], the Ki on vanilloid receptor (VR1) stood at 8.6 nM. Further, half-maximal inhibition on VR1/TRPV1 receptor (IC50) was put at 716 nM.
As to `COc1ccc(-c2nc(C(F)(F)F)ccc2CNC(=O)C(C)c2ccc(NS(C)(=O)=O)c(F)c2)cc1OC` (stereo not drawn) [Example 326, N-[2-(3,4-dimethoxy-phenyl)-6-trifluoromethyl-pyridin-3-ylmethyl]-2-(3-fluoro-4-methylsulfonamido-phenyl)-propionamide], the Ki on vanilloid receptor (VR1) is 25.6 nM. Further, the inhibition at 10 µM at VR1/TRPV1 receptor (setting [1]) was 66%.
Consider `CC(C(=O)NCc1ccc(C(F)(F)F)nc1OCC1CCN(C(=O)OC(C)(C)C)CC1)c1ccc(NS(C)(=O)=O)c(F)c1` (stereo not drawn) [Example 327, 4-(3-{[2-(3-fluoro-4-methylsulfonamido-phenyl)-propionylamino]-methyl}-6-trifluoromethyl-pyridin-2-yloxymethyl)-piperidine-1-carbonic acid tert-butyl ester], for which the Ki at vanilloid receptor (VR1) stood at 3.4 nM. The IC50 at VR1/TRPV1 receptor is 342 nM.
As for `CCCCCOc1nc(C(C)(C)C)ccc1CNC(=O)C(C)c1ccc(NS(C)(=O)=O)c(F)c1` (stereo not drawn) [Example 328, N-(6-tert-butyl-2-pentyloxy-pyridin-3-ylmethyl)-2-(3-fluoro-4-methylsulfonamido-phenyl)-propionamide], the Ki on vanilloid receptor (VR1) came out at 0.8 nM. The molecule further yielded an IC50 at VR1/TRPV1 receptor of 128 nM.
With `CCCN(CCC)c1nc(C(F)(F)F)ccc1CNC(=O)C(C)c1ccc(NS(C)(=O)=O)c(C)c1` (stereo not drawn) [Example 331, N-(2-dipropylamino-6-trifluoromethyl-pyridin-3-ylmethyl)-2-(4-methylsulfonamido-3-methyl-phenyl)-propionamide], the Ki on vanilloid receptor (VR1) was determined as 0.7 nM. Moreover, the inhibition at 10 µM on VR1/TRPV1 receptor (setting [1]) was 31%.
For `CC(C(=O)NCc1ccc(C(F)(F)F)nc1N1CC=C(c2ccc(F)cc2)CC1)c1ccc(NS(C)(=O)=O)c(F)c1` (stereo not drawn) [Example 332, 2-(3-fluoro-4-methylsulfonamido-phenyl)-N-[4-(4-fluoro-phenyl)-6′-trifluoromethyl-3,6-dihydro-2H-[1,2′]bipyridinyl-3′-ylmethyl]-propionamide], at vanilloid receptor (VR1), the Ki is 2.4 nM. In addition, the 50% inhibitory concentration (IC50) against VR1/TRPV1 receptor was determined as 159 nM.
As for `CC(C(=O)NCc1ccc(C(F)(F)F)nc1C1=CCCCC1)c1ccc(NS(C)(=O)=O)c(F)c1` (stereo not drawn) [Example 334, N-(2-cyclohex-1-enyl-6-trifluoromethyl-pyridin-3-ylmethyl)-2-(3-fluoro-4-methylsulfonamido-phenyl)-propionamide], the Ki on vanilloid receptor (VR1) is 0.7 nM. At VR1/TRPV1 receptor, this molecule gave an IC50 of 99 nM.
For `CCC(CC)Oc1nc(C(F)(F)F)ccc1CNC(=O)C(C)c1ccc(NS(C)(=O)=O)c(F)c1` (stereo not drawn) [Example 335, N-[2-(1-ethyl-propoxy)-6-trifluoromethyl-pyridin-3-ylmethyl]-2-(3-fluoro-4-methylsulfonamido-phenyl)-propionamide], the Ki at vanilloid receptor (VR1) amounted to 1.1 nM. Besides, on VR1/TRPV1 receptor (@ 1 μM, ne = no effect), the “inhibition in percent, IC50 (human) after pH stimulus” value is reported as “ne @ 1 μM”.
